Starred links: 1 amine or outer side, 2 acyl side, 3 side chain; linkers in the order of their positions; H or OH if unused. Non-standard residues stand in square brackets, D forms with d. Residues, ends and D or L forms follow the SMILES beside them. *: point of attachment. Phe(Nα-CONH2) = NC(=O)N[C@@H](Cc1ccccc1)C(=O)*; dβ3hPhg = O=C(C[C@H](N[*:1])c1ccccc1)[*:2]; Phe(4-NH2) = Nc1ccc(C[C@H](N)C(=O)O)cc1; Bta = N[C@@H](Cc1csc2ccccc12)C(=O)O; d(hCha) = N[C@H](CCC1CCCCC1)C(=O)O; hArg = N=C(N)NCCCC[C@H](N)C(=O)O; 3Pal = N[C@@H](Cc1cccnc1)C(=O)O; dCha = N[C@H](CC1CCCCC1)C(=O)O; dChg = N[C@@H](C(=O)O)C1CCCCC1; Phg = N[C@H](C(=O)O)c1ccccc1; Nle = CCCC[C@H](N)C(=O)O; Orn = NCCC[C@H](N)C(=O)O; Aze = O=C(O)[C@@H]1CCN1; X13 = c1ccc2c(c1)nnn2C*; Piv = CC(C)(C)C(=O)*; Acm = CC(=O)NC*; Moc = COC(=O)*
Biological target: T1, human C5aR(CD88) (Homo sapiens, UniProt P21730)
T1 construct: expressed in transfected cells; host or cells: rat basophilic leukemia cells (RBL)
T1 sequence (P21730 1-350): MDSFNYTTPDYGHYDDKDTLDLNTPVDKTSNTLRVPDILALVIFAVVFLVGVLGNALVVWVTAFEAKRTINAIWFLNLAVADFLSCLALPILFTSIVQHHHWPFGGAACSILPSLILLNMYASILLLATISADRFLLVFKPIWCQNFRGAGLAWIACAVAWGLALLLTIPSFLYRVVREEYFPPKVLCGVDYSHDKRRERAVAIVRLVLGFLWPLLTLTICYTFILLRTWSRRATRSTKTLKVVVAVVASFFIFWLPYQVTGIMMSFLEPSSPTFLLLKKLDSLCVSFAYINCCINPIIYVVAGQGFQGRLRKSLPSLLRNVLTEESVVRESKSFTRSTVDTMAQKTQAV
Test: Determination of the IC50 value in an enzyme release assay (functional assay, antagonistic activity)
Assay type: cell-based
Conditions: antagonistic activity; IC50 group in enzyme release assay, RBL cells expressing human C5aR(CD88); read-out: activity (group)

Row | IC50 [nM] | Compound
1 | 200 to 2000 | CC(=O)N[C@@H](Cc1ccccc1)C(=O)N[C@@H](CCCN)C(=O)N[C@@H](CO)C(=O)N[C@H](CC1CCCCC1)C(=O)N[C@@H](Cc1c[nH]c2ccccc12)C(=O)N[C@@H](Cc1ccccc1)C(=O)O [Compound 117, Ac-Phe-Orn-Ser-cha-Trp-Phe-OH] (Ac-F[Orn]S[dCha]WF-OH)
2 | 200 to 2000 | CC(=O)N[C@@H](Cc1ccccc1)C(=O)N[C@@H](CCCN)C(=O)N1CCC[C@H]1C(=O)N[C@@H](C(=O)N[C@@H](Cc1c[nH]c2ccccc12)C(=O)N[C@@H](Cc1ccccc1)C(=O)O)C1CCCCC1 [Compound 118, Ac-Phe-Orn-Pro-chg-Trp-Phe-OH] (Ac-F[Orn]P[dChg]WF-OH)
3 | 50 to 200 | CC(=O)N[C@@H](Cc1ccccc1)C(=O)N[C@@H](CSCn1nnc2ccccc21)C(=O)N1CCC[C@H]1C(=O)N[C@H](CC1CCCCC1)C(=O)N[C@@H](Cc1csc2ccccc12)C(=O)N[C@@H](Cc1ccccc1)C(N)=O [Compound 119, Ac-Phe-Eec-Pro-cha-Bta-Phe-NH2] (Ac-FC(X13)P[dCha][Bta]F-NH2)
4 | 20 to 50 | CC(=O)N[C@@H](Cc1ccccc1)C(=O)N[C@@H](CCCNC(=N)N)C(=O)N1CCC[C@H]1C(=O)N[C@H](CC1CCCCC1)C(=O)N[C@@H](Cc1csc2ccccc12)C(=O)N[C@@H](Cc1ccccc1)C(N)=O [Compound 122, Ac-Phe-Arg-Pro-cha-Bta-Phe-NH2] (Ac-FRP[dCha][Bta]F-NH2)
5 | 200 to 2000 | CC(=O)NCSC[C@H](NC(=O)[C@H](Cc1ccccc1)NC(C)=O)C(=O)N1CCC[C@H]1C(=O)N[C@H](CC1CCCCC1)C(=O)N[C@@H](Cc1csc2ccccc12)C(=O)N[C@@H](Cc1ccccc1)C(N)=O [Compound 123, Ac-Phe-Cys(Acm)-Pro-cha-Bta-Phe-NH2] (Ac-FC(Acm)P[dCha][Bta]F-NH2)
6 | 20 to 50 | CC(=O)N[C@@H](CC(=O)N[C@@H](CCCN)C(=O)N1CCC[C@H]1C(=O)N[C@H](CC1CCCCC1)C(=O)N[C@@H](Cc1csc2ccccc12)C(=O)N[C@@H](Cc1ccccc1)C(N)=O)c1ccccc1 [Compound 125, Ac-Eby-Orn-Pro-cha-Bta-Phe-NH2] (Ac-[dβ3hPhg][Orn]P[dCha][Bta]F-NH2)
7 | 50 to 200 | CC(=O)N[C@H](C(=O)N[C@@H](CCCN)C(=O)N1CCC[C@H]1C(=O)N[C@H](CC1CCCCC1)C(=O)N[C@@H](Cc1csc2ccccc12)C(=O)N[C@@H](Cc1ccccc1)C(N)=O)c1ccccc1 [Compound 126, Ac-Phg-Orn-Pro-cha-Bta-Phe-NH2] (Ac-[Phg][Orn]P[dCha][Bta]F-NH2)
8 | 50 to 200 | CC(=O)N[C@@H](Cc1ccccc1)C(=O)N[C@@H](CCCN)C(=O)N1CCC[C@H]1C(=O)N[C@H](CCC1CCCCC1)C(=O)N[C@@H](Cc1c[nH]c2ccccc12)C(=O)N[C@@H](Cc1ccccc1)C(=O)O [Compound 132, Ac-Phe-Orn-Pro-hch-Trp-Phe-OH] (Ac-F[Orn]P[d(hCha)]WF-OH)
9 | 10 to 20 | CC(=O)N[C@@H](CCCCN)C(=O)N[C@@H](Cc1ccccc1)C(=O)N[C@@H](CCCN)C(=O)N1CC[C@H]1C(=O)N[C@H](CC1CCCCC1)C(=O)N[C@@H](Cc1csc2ccccc12)C(=O)N[C@@H](Cc1ccccc1)C(N)=O [Compound 135, Ac-Lys-Phe-Orn-Aze-cha-Bta-Phe-NH2] (Ac-KF[Orn][Aze][dCha][Bta]F-NH2)
10 | 20 to 50 | CC(=O)NCC(=O)N[C@@H](Cc1ccccc1)C(=O)N[C@@H](CCCN)C(=O)N1CC[C@H]1C(=O)N[C@H](CC1CCCCC1)C(=O)N[C@@H](Cc1csc2ccccc12)C(=O)N[C@@H](Cc1ccccc1)C(N)=O [Compound 136, Ac-Gly-Phe-Orn-Aze-cha-Bta-Phe-NH2] (Ac-GF[Orn][Aze][dCha][Bta]F-NH2)
11 | 20 to 50 | CC(=O)N[C@@H](CCCNC(=N)N)C(=O)N[C@@H](Cc1ccccc1)C(=O)N[C@@H](CCCN)C(=O)N1CC[C@H]1C(=O)N[C@H](CC1CCCCC1)C(=O)N[C@@H](Cc1csc2ccccc12)C(=O)N[C@@H](Cc1ccccc1)C(N)=O [Compound 137, Ac-Arg-Phe-Orn-Aze-cha-Bta-Phe-NH2] (Ac-RF[Orn][Aze][dCha][Bta]F-NH2)
12 | 50 to 200 | CC(=O)N[C@@H](Cc1c[nH]cn1)C(=O)N[C@@H](Cc1ccccc1)C(=O)N[C@@H](CCCN)C(=O)N1CC[C@H]1C(=O)N[C@H](CC1CCCCC1)C(=O)N[C@@H](Cc1csc2ccccc12)C(=O)N[C@@H](Cc1ccccc1)C(N)=O [Compound 138, Ac-His-Phe-Orn-Aze-cha-Bta-Phe-NH2] (Ac-HF[Orn][Aze][dCha][Bta]F-NH2)
13 | 50 to 200 | CC(=O)N[C@@H](CO)C(=O)N[C@@H](Cc1ccccc1)C(=O)N[C@@H](CCCN)C(=O)N1CC[C@H]1C(=O)N[C@H](CC1CCCCC1)C(=O)N[C@@H](Cc1csc2ccccc12)C(=O)N[C@@H](Cc1ccccc1)C(N)=O [Compound 139, Ac-Ser-Phe-Orn-Aze-cha-Bta-Phe-NH2] (Ac-SF[Orn][Aze][dCha][Bta]F-NH2)

Row | Compound | IC50 [nM]
14 | CCCC[C@H](NC(=O)[C@H](Cc1ccccc1)NC(C)=O)C(=O)N1CCC[C@H]1C(=O)N[C@H](CC1CCCCC1)C(=O)N[C@@H](Cc1csc2ccccc12)C(=O)N[C@@H](Cc1ccccc1)C(N)=O [Compound 120, Ac-Phe-Nle-Pro-cha-Bta-Phe-NH2] (Ac-F[Nle]P[dCha][Bta]F-NH2) | 50 to 200
15 | CC(=O)N[C@@H](Cc1ccccc1)C(=O)N[C@@H](CCCCNC(=N)N)C(=O)N1CCC[C@H]1C(=O)N[C@H](CC1CCCCC1)C(=O)N[C@@H](Cc1csc2ccccc12)C(=O)N[C@@H](Cc1ccccc1)C(N)=O [Compound 121, Ac-Phe-Har-Pro-cha-Bta-Phe-NH2] (Ac-F[hArg]P[dCha][Bta]F-NH2) | 20 to 50
16 | CC(=O)N[C@@H](Cc1ccccc1)C(=O)N[C@@H](Cc1cccnc1)C(=O)N1CCC[C@H]1C(=O)N[C@H](CC1CCCCC1)C(=O)N[C@@H](Cc1csc2ccccc12)C(=O)N[C@@H](Cc1ccccc1)C(N)=O [Compound 124, Ac-Phe-Mpa-Pro-cha-Bta-Phe-NH2] (Ac-F[3Pal]P[dCha][Bta]F-NH2) | 50 to 200
17 | CC(=O)N[C@@H](Cc1ccccc1)C(=O)N[C@@H](Cc1ccc(N)cc1)C(=O)N1CCC[C@H]1C(=O)N[C@H](CC1CCCCC1)C(=O)N[C@@H](Cc1csc2ccccc12)C(=O)N[C@@H](Cc1ccccc1)C(N)=O [Compound 127, Ac-Phe-Paf-Pro-cha-Bta-Phe-NH2] (Ac-F[Phe(4-NH2)]P[dCha][Bta]F-NH2) | 200 to 2000
18 | NCCC[C@H](NC(=O)[C@H](Cc1ccccc1)NC(N)=O)C(=O)N1CCC[C@H]1C(=O)N[C@H](CC1CCCCC1)C(=O)N[C@@H](Cc1csc2ccccc12)C(=O)N[C@@H](Cc1ccccc1)C(N)=O [Compound 128, H2N—CO-Phe-Orn-Pro-cha-Bta-Phe-NH2] ({Phe(Nα-CONH2)}-[Orn]P[dCha][Bta]F-NH2) | 20 to 50
19 | COC(=O)N[C@@H](Cc1ccccc1)C(=O)N[C@@H](CCCN)C(=O)N1CCC[C@H]1C(=O)N[C@H](CC1CCCCC1)C(=O)N[C@@H](Cc1csc2ccccc12)C(=O)N[C@@H](Cc1ccccc1)C(N)=O [Compound 129, Me-O—CO-Phe-Orn-Pro-cha-Bta-Phe-NH2] (Moc-F[Orn]P[dCha][Bta]F-NH2) | 50 to 200
20 | CC(C)(C)C(=O)N[C@@H](Cc1ccccc1)C(=O)N[C@@H](CCCN)C(=O)N1CCC[C@H]1C(=O)N[C@H](CC1CCCCC1)C(=O)N[C@@H](Cc1csc2ccccc12)C(=O)N[C@@H](Cc1ccccc1)C(N)=O [Compound 134, ^tBu-CO-Phe-Orn-Pro-cha-Bta-Phe-NH2] (Piv-F[Orn]P[dCha][Bta]F-NH2) | 50 to 200
